Residues, ends and D or L forms follow the SMILES beside them. *: point of attachment. Cbz = O=C(OCc1ccccc1)*
Experiments:
[1] = tested on: WI-38 IR-induced senescent cells (IR-SCs); assay: Cell viability assay (flow cytometry, PI); type: cell-based, human; details: for EC50: Homo sapiens, WI-38 IR-SCs, 72 h, Table 1 screen of curcumin analogs; for selective toxicity against IR-SCs versus NCs (viability): WI-38, 72 h
Protocol: (§1) Human WI-38 fibroblasts (WI-38, Cat. No. CCL-75), human IMR-90 fibroblasts (IMR-90, Cat. No. CCL-186), human umbilical vein endothelial cells (HUVEC, Cat. No. CRL-1730), human renal epithelial cells (HREC, Cat. No. PCS-400-012) and human pre-adipocytes (Cat. No. PCS-210-010) were newly purchased from the American Type Culture Collection (ATCC, Manassas, VA, USA). WI-38 and IMR-90 cells were cultured in complete Dulbecco’s modified Eagle medium (DMEM, Cat. No. 12430054, Thermo Fisher Scientific, Waltham, MA, USA) supplemented with 10% heat-inactivated fetal bovine serum (FBS, Cat. No. S11150H, Atlanta Biologicals, Flowery Branch, GA, USA), 100 U/mL penicillin and 100 µg/mL streptomycin (Pen Strep, Cat. No. 15140122, Thermo Fisher Scientific, Waltham, MA, USA) in a humidified incubator at 37°C and 5% CO2. HUVEC were cultured in EGM-2 BulletKit (Cat. No. CC-3162, Lonza, Basel, Switzerland) containing basal medium supplemented with growth factors, cytokines and other supplements according to the manufacturer’s protocol. HREC were cultured in renal epithelial cell basal medium (Cat. No. PCS-400-030, ATCC, Manassas, VA, USA) supplemented with renal epithelial cell growth kit (Cat. No. PCS400040, ATCC, Manassas, VA, USA). Human pre-adipocytes were cultured in fibroblast basal medium (Cat. No. PCS-201-030, ATCC, Manassas, VA, USA) supplemented with fibroblast growth kit-low serum (Cat. No. PCS201041, ATCC, Manassas, VA, USA). EF24 (Cat. No. E8409) and HO-3867 (Cat. No. S7501) were purchased from Sigma-Aldrich (St. Louis, MO, USA) and Selleckchem (Houston, TX, USA), respectively. DIMC (Cat. No. 10009986) and 2-HBA (Cat. No. 11879) were both purchased from Cayman Chemical (Ann Arbor, MI, USA).
(§2) Three different methods were used for the induction of SCs, including replicative exhaustion, ionizing radiation and ectopic Ras expression as previously described. Briefly, low-passage WI-38 cells (< 25 passages), IMR-90 cells (< 25 passages), HUVEC (< 10 passages), HREC (< 10 passages) and pre-adipocytes (< 4 passages) were used as NCs or for the induction of senescence. To induce replicative senescence (Rep-SCs), WI-38 and IMR-90 fibroblasts, HUVEC, HREC and pre-adipocytes were subcultured until they stopped to divide and became permanently growth arrested senescence after 38 passages (WI-38), 38 passages (IMR-90), 22 passages (HUVEC), 30 passages (HREC) and 10 passages (pre-adipocytes), respectively. To induce SCs by ionizing radiation (IR-SCs) and ectopic expression of Ras (Ras-SCs), WI-38 NCs were treated as previously described.
(§3) Number of viable cells were quantified using flow cytometry as previously described with slight modifications. Specifically, NCs and SCs were incubated with vehicle (0.1% DMSO) or a test compound at indicated concentrations for 72 h. Following dissociation with 0.25% Trypsin-EDTA (Cat. No. 25200056, Thermo Fisher Scientific, Waltham, MA, USA) at 37°C for 5 min, the cells were harvested in 100 µl pre-cooled phosphate buffered saline (PBS, Cat. No. 20012027, Thermo Fisher Scientific, Waltham, MA, USA) containing 2% FBS and 100 ng/mL propidium iodide (PI, P4170, Sigma-Aldrich, St. Louis, MO, USA) and analyzed using flow cytometry (LSR II, BD Biosciences, San Jose, CA, USA). Percentage of viable cells were determined by counting the number of PI negative cells (viable cells) and then calculated as a ratio of control cells treated with vehicle. In addition, dose-response curves were generated for each compound, and the concentration for 50% of maximal effect (EC50 values) was calculated using GraphPad Prism 6.

[2] = tested on: WI-38 non-senescent cells (NCs); assay: Cell viability assay (flow cytometry, PI); type: cell-based, human; details: Homo sapiens; WI-38 NCs, 72 h, Table 1 screen of curcumin analogs
Protocol: as §1, §2, §3

[3] = tested on: senescent human preadipocytes; set-up: method as in PMID 28273655; details: cited from earlier work
[4] = tested on: Bcl-2 family proteins (Bcl-xl, Mcl-1, Bcl-2); assay: Proteasome inhibition experiment (MG132 pretreatment, western blots); type: cell-based, human; details: 1 µM MG132 1 h prior to EF24 for 72 h
Protocol: After treatment with vehicle or EF24 at 0.5, 1 and 2 µM for 72 h, WI-38 NCs or IR-SCs were harvested in 1.5mL microcentrifuge tubes, and lysed in RIPA buffer with EDTA and EGTA (Cat. No. BP-115DG, Boston BioProducts, Ashland, MA, USA) supplemented with 1% protease inhibitor cocktail (Cat. No. P8340, Sigma-Aldrich, St. Louis, MO, USA) and 1% phosphatase inhibitor cocktail (Cat. No. P0044, Sigma-Aldrich, St. Louis, MO, USA). An equal amount of protein (30 µg/lane) from each cell extract was resolved on a precast gel (Mini-PROTEAN TGX™, Cat. No. 456-1094, Bio-Rad, Hercules, CA, USA). Proteins were blotted to a precut 0.2 µm PVDF membrane (Invitrolon™, Cat. No. LC2002, Life Technologies, Carlsbad, CA, USA) by electrophoresis. The membranes were blocked with 1X TBS-Tween (TBST, Cat. No. J77500, Affymetrix, Santan Clara, CA, USA) containing 5% non-fat dry milk (Cat. No. sc-2324, Santa Cruz Biotechnology, Dallas, TX, USA), and subsequently probed with primary antibodies at a predetermined optimal concentration overnight at 4°C. The primary antibodies including Bcl-xl (Cat. No. 2762), Mcl-1 (Cat. No. 5453), and Bcl-2 (Cat. No. 2872) and β-actin (Cat. No. 4970) were purchased from Cell Signaling Technology (Danvers, MA, USA). […] The blotting membranes were recorded using autoradiography (SRX-101, Konica, Shinjuku, Tokyo, Japan). […]

[5] = tested on: WI-38 IR-SCs; assay: Combination treatment cell viability and coefficient of drug interaction (CDI); type: cell-based, human; details: 72 h
Protocol: as §3
The data were analyzed by analysis of variance (ANOVA) with GraphPad Prism 6 (GraphPad Software, La Jolla, CA, USA). […] To detect the synergistic senolytic activities of EF24 and ABT263, CDI was calculated as previously described.

[6] = tested on: platelets; set-up: method as in PMID 22496272; details: cited from earlier work
[7] = set-up: method as in PMID 20211249; details: cited from earlier work
[8] = tested on: WI-38 IR-SCs; assay: Apoptosis analysis (Annexin-V/PI flow cytometry); type: cell-based, human; details: 10 µM QVD 4 h prior to 2 µM EF24 for 72 h
Protocol: WI-38 NCs and SCs were treated with vehicle or 10 µM Q-VD-OPh (QVD, Cat. No. S7311, Selleckchem, Houston, TX, USA) for 4 h prior to the addition of vehicle or 2 µM EF24 for 72 h. The suspending cells were first harvested from the culture and then pooled with the adherent cells detached by 0.25% Trypsin-EDTA at 37°C for 5 min in 12 × 75 mm polystyrene round-bottom tubes (Cat. No. 352058, Falcon, Corning, NY, USA) containing complete DMEM medium. The cells were stained with Alexa Fluor 647-Annexin V (1: 50, Cat. No. 640912, BioLegend, San Diego, CA, USA) and PI (10 µg/mL, Cat. No. 421301, BioLegend, San Diego, CA, USA) at room temperature for 30 min. The stained cells were analyzed using a BD LSR II flow cytometer.

| Compound | EC50 [1] [µM] | selective toxicity against IR-SCs versus NCs (viability) [1] | EC50 [2] [µM] | further results |
| --- | --- | --- | --- | --- |
| O=C(C=Cc1ccccc1O)C=Cc1ccccc1O [2-HBA, Bis(2-hydroxybenzylidene)acetone] | 3.85 | lesser toxicities to NCs | 9.5 |  |
| O=c1c(O)c(-c2ccc(O)c(O)c2)oc2cc(O)ccc12 [fisetin] |  |  |  | senolytic activity against senescent human preadipocytes [3]: lacks senolytic activity |
| CC(C)C[C@@H](C=O)NC(=O)[C@H](CC(C)C)NC(=O)[C@H](CC(C)C)NC(=O)OCc1ccccc1 [MG132] (Cbz-Leu-Leu-Leu-aldehyde) |  |  |  | effect of MG132 pretreatment on downregulation of Bcl-2 family proteins by EF24 in SCs ([4]; WI-38 IR-SCs): abrogated; effect of MG132 pretreatment on expression of Bcl-2 family proteins in NCs ([4]; WI-38 NCs): no significant effect |
| CC1(C)CCC(c2ccc(Cl)cc2)=C(CN2CCN(c3ccc(C(=O)NS(=O)(=O)c4ccc(N[C@H](CCN5CCOCC5)CSc5ccccc5)c(S(=O)(=O)C(F)(F)F)c4)cc3)CC2)C1 [ABT263] |  |  |  | cell viability of IR-SCs, agent alone [5]: dose-dependently reduce; on-target toxicity to platelets [6]: dose-limiting thrombocytopenia |
| CC1(C)C=C(CN2C/C(=C\c3ccc(F)cc3)C(=O)/C(=C/c3ccc(F)cc3)C2)C(C)(C)N1O [HO-3867] | 3.85 | lesser toxicities to NCs | 8.3 |  |
| C=CCNC1=C2C[C@@H](C)C[C@H](OC)[C@H](O)[C@@H](C)/C=C(\C)[C@H](OC(N)=O)[C@@H](OC)/C=C\C=C(/C)C(=O)NC(=CC1=O)C2=O [17-AAG] |  |  |  | hepatotoxicity [7]: unacceptable hepatotoxicity |
| COc1ccc(/C=C/C(=O)CC(=O)/C=C/c2ccc(OC)c(OC)c2)cc1OC [DIMC, dimethoxycurcumin] | 15.2 | minimal selective toxicity | 23.8 |  |
| CC(C)[C@H](NC(=O)c1ccc2ccccc2n1)C(=O)N[C@@H](CC(=O)O)C(=O)COc1c(F)cccc1F [QVD] |  |  |  | effect of QVD pretreatment on EF24 induction of SCs apoptosis [8]: completely blocked |
| COC1=C2C[C@@H](C)C[C@H](OC)[C@H](O)[C@@H](C)/C=C(\C)[C@H](OC(N)=O)[C@@H](OC)/C=C\C=C(/C)C(=O)NC(=CC1=O)C2=O [geldanamycin] |  |  |  | hepatotoxicity [7]: unacceptable hepatotoxicity |
